This note sets out measurements from patent US8454986B2, “Silver nanoparticles with specific surface area and a method for producing them” (Janssen Pharmaceutica N.V., priority 2008, dated 2013).

What all share (assay type): cell-based
The subject of one test is Candida albicans. The test is described as follows: Minimal inhibitory concentration, macrodilution method. The settings on record: yeast; 24 h, 30° C. From the text:
(§1) For the determination of the minimal inhibitory concentration (MIC) of nanosilver against different bacteria and fungi, i.e. the lowest concentration at which these micro-organisms show an inhibition of growth, the following protocol was used: • Journal of Antimicrobial Chemotherapy Supplement (JAC [2001] 48, Suppl. S1), March 2006, Chapter 2: Determination of minimal inhibitory concentrations; Macrodilution method.
(§2) Cultures of Staphylococcus aureus, Pseudomonas aeruginosa and Candida albicans were grown overnight and diluted to 150×10^6 bacterial cells or 5×10^6 yeast cells per mL (according to an optical density measured at 610 nm). These stock solutions were further diluted 500 times, […]. The final culture was then two times diluted in the final microtiter plate, resulting in a final dilution of 1:1000.
(§3) The test compound was diluted into the microtiter cultures at a concentration range from 0.5 to 470 mg/L Ag. The microtiter plates were then incubated at 30° C. on a shaker. After 24 h the plates were taken out of the incubation oven and growth was compared with the control row, both visually and by OD measurement at 610 nm.

The test system of a further test is Pseudomonas aeruginosa. Described as above. The conditions noted are these: Gram negative; 24 h, 30° C.
From the text: as §1, §2, §3

The subject of another test is Staphylococcus aureus. The test is described as above. The conditions noted are these: Gram positive; 24 h, 30° C.
From the text: as §1, §2, §3

The test system of the next test is Aspergillus niger. The test is described as follows: Minimal inhibitory concentration, spore culture. The settings on record: mold.

`O=[N+]([O-])[O-].[Ag+]` [silver nitrate]: the “Minimal Inhibitory Concentration (MIC) Candida albicans” value in the test on Candida albicans came out at 12.5 mg Ag/L. Moreover, the “Minimal Inhibitory Concentration (MIC) Pseudomonas aeruginosa” value with Pseudomonas aeruginosa is 6.3 mg Ag/L. For the same molecule, the “Minimal Inhibitory Concentration (MIC) staphylococcus aureus” value with Staphylococcus aureus turned out to be 12.5 mg Ag/L. Moreover, the “Minimal Inhibitory Concentration (MIC) Aspergillus niger” value in the test with Aspergillus niger came to 25 mg Ag/L.
